# Source: patent US20260041089A1, “PLANT BIOSTIMULANT AND METHODS OF MAKING AND USING SAME” (Solugen, Inc., priority 2022, published 2026)
# Several values for one entry are separate records, joined by “and”; a condition that tells them apart may be missing. Identical values can stand only once.
# Test system: microgreens
# Experiment: Radish microgreens growth under controlled pH 5, 1% solutions (Example 2)
# Type: in vivo
# Conditions: for germination rate / root hair development: Day 2; for Plant dry weight: harvest Day 8, dried 3 days
# Description: The biostimulant effect of a PBC under controlled pH and composition conditions was investigated. Particularly, a second batch of testing was performed to verify that biostimulant effect observed in Example 1 was not an artifact of differing pH or composition. In this set, samples having a controlled yet differing compositions were compared. The first sample set comprised the sugar sucrose while the second sample comprised citric acid. Citric acid was reported to promote seed germination, all under the same pH. Therefore, solutions of 1% citric acid, sucrose, and a PBC were prepared and adjusted to a pH of 5. Two pots were filled with 150 g of each solution. About 200 seeds were placed on top of each soaked growing mats. This second batch was left indoors at room temperature for 8 days.
# Microgreens were harvested on Day 8. They were then dried for 3 days, and the dry weights were recorded.
# [1] = 1% solution, pH 5, harvest Day 8
SMILES,"germination rate (1% solution, pH 5)",Length of Root [1],"Plant dry weight (1% solution, pH 5)","overall growth at harvest (Table 2 summary) (1 wt. %, Day 8)",root hair development,growth observation (Day 4),growth observation (Day 7),Length of Stem [1],leaf development (Day 3)
"O=C(O)CC(O)(CC(=O)O)C(=O)O [Citric Acid, citric acid]",100%,0.82 ± 0.25 cm and 0.71 ± 0.22 cm,1.99 g and 1.81 g,least overall growth in every parameter considered,minimal root hair development,stunted growth with no stem or root hair development,no stem development and poor overall growth,,
"OC[C@H]1O[C@@](CO)(O[C@H]2O[C@H](CO)[C@@H](O)[C@H](O)[C@H]2O)[C@@H](O)[C@@H]1O [Sucrose, sucrose]",99%,2.61 ± 0.43 cm and 2.49 ± 1.0 cm,3.0 g and 2.29 g,,most root hair development,,healthy leaf growth,3.86 ± 1.10 cm and 4.27 ± 1.03 cm,most leaf development
